Data from PubChem BioAssay (NCI).
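Grown in 96-well plates, cells were treated for 48 hours with each compound at five concentrations. Insufficient inhibition: endpoint recorded as highest concentration tested. The concentration for 50% growth inhibition is given as GI50. TGI marks complete inhibition of growth.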

Columns and labels:
Assay in all cases: NCI-60 cell line screen, 48 h
HOP-92 NSCLC = system: HOP-92 NSCLC
CCRF-CEM leukemia = system: CCRF-CEM leukemia
A498 renal = system: A498 renal
HOP-62 NSCLC = system: HOP-62 NSCLC
MDA-MB-231 breast = system: MDA-MB-231 breast
RPMI-8226 leukemia = system: RPMI-8226 leukemia
SF-268 CNS = system: SF-268 CNS
UACC-257 melanoma = system: UACC-257 melanoma
RXF 393 renal = system: RXF 393 renal
HL-60(TB) leukemia = system: HL-60(TB) leukemia
SR leukemia = system: SR leukemia
SN12C renal = system: SN12C renal
EKVX NSCLC = system: EKVX NSCLC
TK-10 renal = system: TK-10 renal
ACHN renal = system: ACHN renal
MOLT-4 leukemia = system: MOLT-4 leukemia
OVCAR-5 ovarian = system: OVCAR-5 ovarian
COLO 205 colon = system: COLO 205 colon
SNB-75 CNS = system: SNB-75 CNS
OVCAR-4 ovarian = system: OVCAR-4 ovarian
MDA-MB-435 = system: MDA-MB-435
SNB-19 CNS = system: SNB-19 CNS
BT-549 breast = system: BT-549 breast
UO-31 renal = system: UO-31 renal
M14 melanoma = system: M14 melanoma
DU-145 prostate = system: DU-145 prostate
A549 NSCLC = system: A549 NSCLC
NCI/ADR-RES ovarian = system: NCI/ADR-RES ovarian

For `CN1C[C@@H](c2ccc(Cl)cc2)[C@]2(NC(=S)N(c3ccc(F)c(Cl)c3)C2=O)[C@@]12C(=O)NC1C=CC(Cl)=C[C@H]12` (stereo partly specified), the GI50 (HOP-92 NSCLC) was 2.49 µM, the TGI (HOP-92 NSCLC) was 7.13 µM and the GI50 (CCRF-CEM leukemia) was 4.13 µM. It also gave a TGI (CCRF-CEM leukemia) of 18.6 µM, a GI50 (A498 renal) of 2.74 µM and a TGI (A498 renal) of 10.1 µM. The GI50 (HOP-62 NSCLC) was 3.14 µM, the TGI (HOP-62 NSCLC) was 12.7 µM and the GI50 (MDA-MB-231 breast) was 1.88 µM. It also gave a TGI (MDA-MB-231 breast) of 4.27 µM, a GI50 (RPMI-8226 leukemia) of 2.72 µM and a TGI (RPMI-8226 leukemia) of 7.06 µM. The GI50 (SF-268 CNS) was 2.89 µM, the TGI (SF-268 CNS) was 11.2 µM and the GI50 (UACC-257 melanoma) was 3.48 µM. The TGI (UACC-257 melanoma) was 14.1 µM, the GI50 (RXF 393 renal) was 1.88 µM and the TGI (RXF 393 renal) was 3.73 µM. For the same compound, the GI50 (HL-60(TB) leukemia) was 2.48 µM, the TGI (HL-60(TB) leukemia) was 6.02 µM and the GI50 (SR leukemia) was 2.79 µM. It also gave a TGI (SR leukemia) of 7.18 µM, a GI50 (SN12C renal) of 1.86 µM and a TGI (SN12C renal) of 3.74 µM. It also gave a GI50 (EKVX NSCLC) of 2.72 µM, a TGI (EKVX NSCLC) of 20.3 µM and a GI50 (TK-10 renal) of 3.48 µM. The TGI (TK-10 renal) was 8.06 µM, the GI50 (ACHN renal) was 3.07 µM and the TGI (ACHN renal) was 10.6 µM. The GI50 (MOLT-4 leukemia) was 2.87 µM, the TGI (MOLT-4 leukemia) was 14.6 µM and the GI50 (OVCAR-5 ovarian) was 2.36 µM. For the same compound, the TGI (OVCAR-5 ovarian) was 6.14 µM, the GI50 (COLO 205 colon) was 1.75 µM and the TGI (COLO 205 colon) was 3.46 µM. The GI50 (SNB-75 CNS) was 1.87 µM, the TGI (SNB-75 CNS) was 9.92 µM and the GI50 (OVCAR-4 ovarian) was 3.75 µM. For the same compound, the TGI (OVCAR-4 ovarian) was 18.6 µM, the GI50 (MDA-MB-435) was 3.02 µM and the TGI (MDA-MB-435) was 11.2 µM. The GI50 (SNB-19 CNS) was 3.17 µM, the TGI (SNB-19 CNS) was 14.4 µM and the GI50 (BT-549 breast) was 4.62 µM. It also gave a TGI (BT-549 breast) of 17.1 µM, a GI50 (UO-31 renal) of 1.6 µM and a TGI (UO-31 renal) of 3.86 µM. For the same compound, the GI50 (M14 melanoma) was 2.95 µM, the TGI (M14 melanoma) was 10.6 µM and the GI50 (DU-145 prostate) was 3.35 µM. The TGI (DU-145 prostate) was 12.6 µM, the GI50 (A549 NSCLC) was 3.34 µM and the TGI (A549 NSCLC) was 12.3 µM. It also gave a GI50 (NCI/ADR-RES ovarian) of 2.54 µM and a TGI (NCI/ADR-RES ovarian) of 8.97 µM.
